Values after ≈ are worked out from the molar mass of the structure shown.
How the values were obtained:
[1] = Kinetic solubility in PBS (HPLC solubility assay); conditions: aqueous buffer, kinetic from dmso stock
TLR4 = TLR4 (Homo sapiens, UniProt O00206+Q9Y6Y9); experiment: TLR4 NF-κB SEAP reporter assay in HEK-Blue hTLR4 cells; conditions: for TLR4 activation at 10 μM, fold increase / TLR4 activation at 100 μM, fold increase: 18 h, NF-κB transcriptional activity (SEAP) relative to 0.1% DMSO; for maximum TLR4 activation: HEK-Blue hTLR4, 21 at 10 μM; for concentration at which compound activated TLR4: dose-response 0.5–10 μM (17–21) or 1–100 μM (27–31)
Sequence of TLR4 (O00206 24-839): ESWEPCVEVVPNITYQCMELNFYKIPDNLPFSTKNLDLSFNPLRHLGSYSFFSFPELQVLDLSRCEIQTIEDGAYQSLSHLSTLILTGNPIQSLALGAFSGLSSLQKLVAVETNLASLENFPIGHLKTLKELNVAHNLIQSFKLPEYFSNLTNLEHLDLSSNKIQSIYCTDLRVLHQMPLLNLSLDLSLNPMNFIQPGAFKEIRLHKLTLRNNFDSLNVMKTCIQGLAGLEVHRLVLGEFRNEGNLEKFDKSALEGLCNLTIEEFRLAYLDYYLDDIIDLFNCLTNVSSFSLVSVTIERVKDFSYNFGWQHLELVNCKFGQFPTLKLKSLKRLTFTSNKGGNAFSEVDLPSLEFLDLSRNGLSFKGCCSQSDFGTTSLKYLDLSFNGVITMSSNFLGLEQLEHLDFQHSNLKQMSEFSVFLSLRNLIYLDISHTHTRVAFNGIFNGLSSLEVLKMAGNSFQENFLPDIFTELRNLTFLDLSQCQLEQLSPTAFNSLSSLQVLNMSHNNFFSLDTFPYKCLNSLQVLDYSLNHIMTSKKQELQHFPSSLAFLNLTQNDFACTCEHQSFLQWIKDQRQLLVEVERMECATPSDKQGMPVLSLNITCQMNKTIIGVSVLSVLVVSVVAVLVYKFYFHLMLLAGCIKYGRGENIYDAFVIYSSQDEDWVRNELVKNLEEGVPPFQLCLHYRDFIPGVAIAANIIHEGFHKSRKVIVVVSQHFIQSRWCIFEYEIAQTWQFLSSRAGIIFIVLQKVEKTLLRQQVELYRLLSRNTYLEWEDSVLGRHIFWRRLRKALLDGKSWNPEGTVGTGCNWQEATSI
Sequence of TLR4 (Q9Y6Y9 17-160 limits assumed): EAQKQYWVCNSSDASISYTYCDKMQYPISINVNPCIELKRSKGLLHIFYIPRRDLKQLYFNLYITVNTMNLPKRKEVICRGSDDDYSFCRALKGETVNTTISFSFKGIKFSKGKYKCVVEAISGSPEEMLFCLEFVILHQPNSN

NOD2 = NOD2 (Homo sapiens, UniProt Q9HC29); experiment: NOD2 NF-κB SEAP reporter assay in HEK-Blue hNOD2 cells; conditions: for NOD2 activation at 10 μM, fold increase: 18 h, NF-κB transcriptional activity (SEAP) relative to 0.1% DMSO; for NOD2 agonist activity: compared with NOD2 agonist 3 and MDP (4 μM)
Sequence of NOD2 (Q9HC29 whole entry): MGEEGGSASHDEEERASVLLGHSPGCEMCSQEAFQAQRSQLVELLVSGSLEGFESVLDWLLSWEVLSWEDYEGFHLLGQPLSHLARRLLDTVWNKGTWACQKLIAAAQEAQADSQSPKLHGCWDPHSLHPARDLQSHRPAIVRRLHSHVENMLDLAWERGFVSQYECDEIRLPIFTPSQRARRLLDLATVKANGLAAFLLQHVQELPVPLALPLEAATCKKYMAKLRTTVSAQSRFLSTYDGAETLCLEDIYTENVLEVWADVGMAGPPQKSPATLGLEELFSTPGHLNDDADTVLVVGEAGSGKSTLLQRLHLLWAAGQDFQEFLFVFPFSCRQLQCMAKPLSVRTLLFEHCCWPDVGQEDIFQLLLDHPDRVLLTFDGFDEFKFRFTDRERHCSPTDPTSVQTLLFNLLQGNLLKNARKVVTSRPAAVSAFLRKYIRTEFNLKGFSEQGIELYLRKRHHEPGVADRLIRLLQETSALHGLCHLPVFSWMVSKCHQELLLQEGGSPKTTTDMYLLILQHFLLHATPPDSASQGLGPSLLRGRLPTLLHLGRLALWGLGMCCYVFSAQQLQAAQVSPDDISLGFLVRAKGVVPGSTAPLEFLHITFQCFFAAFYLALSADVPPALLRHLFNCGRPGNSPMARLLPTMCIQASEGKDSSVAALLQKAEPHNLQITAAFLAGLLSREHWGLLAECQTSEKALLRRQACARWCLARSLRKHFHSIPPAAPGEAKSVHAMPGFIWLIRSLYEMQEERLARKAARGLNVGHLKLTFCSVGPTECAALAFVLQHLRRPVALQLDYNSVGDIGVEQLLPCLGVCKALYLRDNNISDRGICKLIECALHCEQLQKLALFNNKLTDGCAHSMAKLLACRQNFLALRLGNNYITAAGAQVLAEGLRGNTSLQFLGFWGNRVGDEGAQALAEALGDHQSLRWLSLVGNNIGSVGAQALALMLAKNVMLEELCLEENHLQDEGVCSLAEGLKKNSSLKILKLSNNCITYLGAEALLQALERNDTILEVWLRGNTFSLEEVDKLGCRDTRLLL

[2] = PBS, Average solubility, Tables S1–S3, average of two samples
[3] = PBS, Solubility sample 1, Tables S1–S3, replicate 1
[4] = PBS, Solubility sample 2, Tables S1–S3, replicate 2
[5] = PBS, solubility in PBS, kinetic solubility, HPLC solubility assay
[6] = Average solubility, Tables S1–S3, average of two samples
[7] = Solubility sample 1, Tables S1–S3, replicate 1
[8] = Solubility sample 2, Tables S1–S3, replicate 2
[9] = solubility in PBS, kinetic solubility, HPLC solubility assay

`O=C(O)Cc1ccc(C(C(=O)NC2CCCC2)N(C(=O)c2cc(-c3ccccc3)n(-c3ccccc3)n2)c2ccc3c(c2)CCC3)cc1` (stereo not shown) [Compound 4, reference compound] showed a solubility [1, 2] of 238 µM (≈ 152 µg/mL), a solubility [1, 3] of 249 µM (≈ 159 µg/mL) and a solubility [1, 4] of 226 µM (≈ 145 µg/mL). The solubility [1, 5] was 238 µM (≈ 152 µg/mL), the “TLR4 activation at 10 μM, fold increase” value (TLR4; 10 μM) was 7.23 fold increase and the “maximum TLR4 activation” value (TLR4) was 7.23 fold.
In the case of `O=C(O)CSc1nc2c([nH]c3ccccc32)c(=O)n1-c1ccccc1` [Compound 6, reference compound], the solubility [1, 2] is reported as 254 µM (≈ 89.3 µg/mL), the solubility [1, 3] is reported as 270 µM (≈ 94.8 µg/mL) and the solubility [1, 4] is reported as 238 µM (≈ 83.7 µg/mL). The solubility [1, 5] was 254 µM (≈ 89.3 µg/mL), the “TLR4 activation at 10 μM, fold increase” value (TLR4; 10 μM) was 1.22 fold increase and the “TLR4 activation at 100 μM, fold increase” value (TLR4) was 3.10 fold increase. For the same molecule, the “maximum TLR4 activation” value (TLR4) was 3.10 fold.
In the case of `CCOC(=O)[C@H](CCC(=O)NCCNC(=O)Cc1ccc(C(C(=O)NC2CCCC2)N(C(=O)c2cc(-c3ccccc3)n(-c3ccccc3)n2)c2ccc3c(c2)CCC3)cc1)NC(=O)[C@@H](NC(=O)CNC(=O)/C=C/c1ccc(O)c(OC)c1)C(C)C` (stereo partly drawn) [Compound 17, Ethyl N ^5-(2-(2-(4-(2-(Cyclopentylamino)-1-(N-(2,3-dihydro-1H-inden-5-yl)-1,5-diphenyl-1H-pyrazole-3-carboxamido)-2-oxoethyl)phenyl)acetamido)ethyl)-N ^2-((E)-3-(4-hydroxy-3-methoxyphenyl)acryloyl)glycyl-L-valyl-D-glutaminate], the solubility [1, 3] is reported as 0.68 µM (≈ 0.796 µg/mL), the solubility [1, 4] is reported as 0.83 µM (≈ 0.971 µg/mL) and the solubility [1, 5] is reported as 0.76 µM (≈ 0.889 µg/mL). The “TLR4 activation at 10 μM, fold increase” value (TLR4; 10 μM) was 5.10 fold increase, the “concentration at which compound activated TLR4” value (from here on “concentration”) (TLR4) was 1.0 µM and the “NOD2 activation at 10 μM, fold increase” value (NOD2) was 3.66 fold increase. For the same molecule, the “NOD2 agonist activity” value (NOD2) was “comparable efficiency to MDP”.
With `CCOC(=O)[C@H](CCC(=O)NCCCCCCNC(=O)Cc1ccc(C(C(=O)NC2CCCC2)N(C(=O)c2cc(-c3ccccc3)n(-c3ccccc3)n2)c2ccc3c(c2)CCC3)cc1)NC(=O)[C@@H](NC(=O)CNC(=O)/C=C/c1ccc(O)c(OC)c1)C(C)C` (stereo partly drawn) [Compound 18, Ethyl N ^5-(6-(2-(4-(2-(Cyclopentylamino)-1-(N-(2,3-dihydro-1H-inden-5-yl)-1,5-diphenyl-1H-pyrazole-3-carboxamido)-2-oxoethyl)phenyl)acetamido)hexyl)-N ^2-((E)-3-(4-hydroxy-3-methoxyphenyl)acryloyl)glycyl-L-valyl-D-glutaminate] the solubility [1, 3] was 0.85 µM (≈ 1.04 µg/mL), the solubility [1, 4] was 1.17 µM (≈ 1.43 µg/mL) and the solubility [1, 5] was 1.01 µM (≈ 1.24 µg/mL). The “TLR4 agonism” value (TLR4; 10 μM) was “weak TLR4 agonism”, the “TLR4 activation at 10 μM, fold increase” value (TLR4; 10 μM) was 1.46 fold increase and the “NOD2 activation at 10 μM, fold increase” value (NOD2) was 2.43 fold increase.
`CCOC(=O)[C@H](CCC(=O)NCCOCCOCCNC(=O)Cc1ccc(C(C(=O)NC2CCCC2)N(C(=O)c2cc(-c3ccccc3)n(-c3ccccc3)n2)c2ccc3c(c2)CCC3)cc1)NC(=O)[C@H](NC(=O)CNC(=O)/C=C/c1ccc(O)c(OC)c1)C(C)C` (stereo partly drawn) [Compound 19, Ethyl (16S)-1-(4-(2-(Cyclopentylamino)-1-(N-(2,3-dihydro-1H-inden-5-yl)-1,5-diphenyl-1H-pyrazole-3-carboxamido)-2-oxoethyl)phenyl)-16-((R)-2-(2-((E)-3-(4-hydroxy-3-methoxyphenyl)acrylamido)acetamido)-3-methylbutanamido)-2,13-dioxo-6,9-dioxa-3,12-diazaheptadecan-17-oate] gave a solubility [1, 3] of 2.59 µM (≈ 3.26 µg/mL), a solubility [1, 4] of 1.68 µM (≈ 2.11 µg/mL) and a solubility [1, 5] of 2.14 µM (≈ 2.69 µg/mL). The “TLR4 activation at 10 μM, fold increase” value (TLR4; 10 μM) was 2.78 fold increase, the “concentration” value (TLR4) was 5 µM and the “NOD2 activation at 10 μM, fold increase” value (NOD2) was 3.06 fold increase.
With `CCOC(=O)[C@@H](CCC(=O)NCCCOCCOCCOCCCNC(=O)Cc1ccc(C(C(=O)NC2CCCC2)N(C(=O)c2cc(-c3ccccc3)n(-c3ccccc3)n2)c2ccc3c(c2)CCC3)cc1)NC(=O)[C@@H](NC(=O)CNC(=O)/C=C/c1ccc(O)c(OC)c1)C(C)C` (stereo partly drawn) [Compound 20, Ethyl (21R)-1-(4-(2-(Cyclopentylamino)-1-(N-(2,3-dihydro-1H-inden-5-yl)-1,5-diphenyl-1H-pyrazole-3-carboxamido)-2-oxoethyl)phenyl)-21-((S)-2-(2-((E)-3-(4-hydroxy-3-methoxyphenyl)acrylamido)acetamido)-3-methylbutanamido)-2,18-dioxo-7,10,13-trioxa-3,17-diazadocosan-22-oate] the solubility [1, 3] was 1.61 µM (≈ 2.14 µg/mL), the solubility [1, 4] was 1.38 µM (≈ 1.84 µg/mL) and the solubility [1, 5] was 1.5 µM (≈ 2 µg/mL). The “TLR4 activation at 10 μM, fold increase” value (TLR4; 10 μM) was 2.68 fold increase, the “concentration” value (TLR4) was 5 µM and the “NOD2 activation at 10 μM, fold increase” value (NOD2) was 3.53 fold increase. The “NOD2 agonist activity” value (NOD2) was “comparable efficiency to MDP”.
For `CCOC(=O)[C@H](CCC(=O)NCCNC(=O)CSc1nc2c([nH]c3ccccc32)c(=O)n1-c1ccccc1)NC(=O)[C@H](NC(=O)CNC(=O)/C=C/c1ccc(O)c(OC)c1)C(C)C` [Compound 27, Ethyl N ^2-((E)-3-(4-Hydroxy-3-methoxyphenyl)acryloyl)glycyl-D-valyl-N ^5-(2-(2-((4-oxo-3-phenyl-4,5-dihydro-3H-pyrimido[5,4-b]indol-2-yl)thio)acetamido)ethyl)-L-glutaminate], the solubility [1, 6] was 310 µM (≈ 274 µg/mL), the solubility [1, 7] was 322 µM (≈ 284 µg/mL) and the solubility [1, 8] was 298 µM (≈ 264 µg/mL). The solubility [1, 9] was 310 µM (≈ 274 µg/mL), the “TLR4 activation at 10 μM, fold increase” value (TLR4; 10 μM) was 1.06 fold increase and the “TLR4 activation at 100 μM, fold increase” value (TLR4) was 2.60 fold increase. The “NOD2 activation at 10 μM, fold increase” value (NOD2) was 2.17 fold increase.
In the case of `CCOC(=O)[C@H](CCC(=O)NCCCCCCNC(=O)CSc1nc2c([nH]c3ccccc32)c(=O)n1-c1ccccc1)NC(=O)[C@H](NC(=O)CNC(=O)/C=C/c1ccc(O)c(OC)c1)C(C)C` [Compound 28, Ethyl N ^2-((E)-3-(4-Hydroxy-3-methoxyphenyl)acryloyl)glycyl-D-valyl-N ^5-(6-(2-((4-oxo-3-phenyl-4,5-dihydro-3H-pyrimido[5,4-b]indol-2-yl)thio)acetamido)hexyl)-L-glutaminate], the solubility [1, 6] is reported as 80 µM (≈ 75.1 µg/mL), the solubility [1, 7] is reported as 115 µM (≈ 108 µg/mL) and the solubility [1, 8] is reported as 80.7 µM (≈ 75.8 µg/mL). For the same molecule, the solubility [1, 9] was 80 µM (≈ 75.1 µg/mL), the “TLR4 activation at 10 μM, fold increase” value (TLR4; 10 μM) was 1.06 fold increase and the “TLR4 activation at 100 μM, fold increase” value (TLR4) was 1.72 fold increase. The “NOD2 activation at 10 μM, fold increase” value (NOD2) was 1.65 fold increase.
In the case of `CCOC(=O)[C@H](CCC(=O)NCCOCCOCCNC(=O)CSc1nc2c([nH]c3ccccc32)c(=O)n1-c1ccccc1)NC(=O)[C@H](NC(=O)CNC(=O)/C=C/c1ccc(O)c(OC)c1)C(C)C` [Compound 29, Ethyl (S)-16-((R)-2-(2-((E)-3-(4-Hydroxy-3-methoxyphenyl)acrylamido)acetamido)-3-methylbutanamido)-2,13-dioxo-1-((4-oxo-3-phenyl-4,5-dihydro-3H-pyrimido[5,4-b]indol-2-yl)thio)-6,9-dioxa-3,12-diazaheptadecan-17-oate], the solubility [1, 6] is reported as 238 µM (≈ 231 µg/mL), the solubility [1, 7] is reported as 232 µM (≈ 225 µg/mL) and the solubility [1, 8] is reported as 244 µM (≈ 237 µg/mL). For the same molecule, the solubility [1, 9] was 238 µM (≈ 231 µg/mL), the “TLR4 activation at 10 μM, fold increase” value (TLR4; 10 μM) was 1.00 fold increase and the “TLR4 activation at 100 μM, fold increase” value (TLR4) was 1.43 fold increase. The “NOD2 activation at 10 μM, fold increase” value (NOD2) was 1.60 fold increase.
In the case of `CCOC(=O)[C@@H](CCC(=O)NCCCOCCOCCOCCCNC(=O)CSc1nc2c([nH]c3ccccc32)c(=O)n1-c1ccccc1)NC(=O)[C@@H](NC(=O)CNC(=O)/C=C/c1ccc(O)c(OC)c1)C(C)C` [Compound 30, Ethyl (R)-21-((S)-2-(2-((E)-3-(4-Hydroxy-3-methoxyphenyl)acrylamido)acetamido)-3-methylbutanamido)-2,18-dioxo-1-((4-oxo-3-phenyl-4,5-dihydro-3H-pyrimido[5,4-b]indol-2-yl)thio)-7,10,13-trioxa-3,17-diazadocosan-22-oate], the solubility [1, 6] is reported as 122 µM (≈ 128 µg/mL), the solubility [1, 7] is reported as 124 µM (≈ 129 µg/mL) and the solubility [1, 8] is reported as 121 µM (≈ 126 µg/mL). For the same molecule, the solubility [1, 9] was 122 µM (≈ 128 µg/mL), the “TLR4 activation at 10 μM, fold increase” value (TLR4; 10 μM) was 1.05 fold increase and the “TLR4 activation at 100 μM, fold increase” value (TLR4) was 1.36 fold increase. For the same molecule, the “NOD2 activation at 10 μM, fold increase” value (NOD2) was 1.55 fold increase.
Work on `CCOC(=O)[C@H](CCC(=O)N1CCC(CN2CCN(C(=O)CSc3nc4c([nH]c5ccccc54)c(=O)n3-c3ccccc3)CC2)CC1)NC(=O)[C@H](NC(=O)CNC(=O)/C=C/c1ccc(O)c(OC)c1)C(C)C` [Compound 31, Ethyl (S)-2-((R)-2-(2-((E)-3-(4-Hydroxy-3-methoxyphenyl)acrylamido)acetamido)-3-methylbutanamido)-5-oxo-5-(4-((4-(2-((4-oxo-3-phenyl-4,5-dihydro-3H-pyrimido[5,4-b]indol-2-yl)thio)acetyl)piperazin-1-yl)methyl)piperidin-1-yl)pentanoate] yielded a solubility [1, 7] of 7.22 µM (≈ 7.26 µg/mL), a solubility [1, 8] of 6.15 µM (≈ 6.19 µg/mL) and a solubility [1, 9] of 6.68 µM (≈ 6.72 µg/mL). The “TLR4 activation at 10 μM, fold increase” value (TLR4; 10 μM) was 1.05 fold increase, the “TLR4 activation at 100 μM, fold increase” value (TLR4) was 2.26 fold increase and the “NOD2 activation at 10 μM, fold increase” value (NOD2) was 3.33 fold increase.
